Measurements from patent publication US9499550B2 (BRISTOL-MYERS SQUIBB COMPANY, priority 2012, dated 2016).

Assays:
[1] = system: HCV genotype 1b (Con1) replicon in HUH-7 cells; experiment: HCV replicon luciferase reporter assay, genotype 1b; type: cell-based; settings: Hepatitis C virus, Huh-7, 72 h, HCV genotype 1b replicon luciferase assay, 3 days incubation, range class, read-out: LE_1b (EC50, range)
Summary of the method: (§1)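 Replicon inhibition for both genotypes was measured as Renilla luciferase signal (EnduRen, 7.5 μM final, 2 h) after 3-day, 37° C exposure of replicon-bearing HUH-7 cells in 4% FCS DMEM, 0.5% DMSO. The 1b construct carries S1179I; the 1a H77 construct carries P1496L and S2204I. Twenty-point, 3-fold dilutions were fitted four-parametrically for EC50, and CC50 was taken from multiplexed Cell Titer-Blue.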

[2] = system: HCV genotype 1a (H77 strain) replicon in HUH-7 cells; experiment: HCV replicon luciferase reporter assay, genotype 1a; type: cell-based; settings: Hepatitis C virus, Huh-7, 72 h, HCV genotype 1a replicon luciferase assay, 3 days incubation, range class, read-out: LE_1a (EC50, range)
Summary of the method: as §1

COCCOc1cc2c(Cl)cccc2c(O[C@@H]2C[C@H]3C(=O)N[C@]4(C(=O)NS(=O)(=O)C5(C)CC5)C[C@H]4/C=C\CC[C@@H](C)C[C@@H](C)[C@H](NC(=O)OC(C)(C)C(C)(F)F)C(=O)N3C2)n1 [Compound 1116, 3,3-difluoro-2-methylbutan-2-yl((2R,6S,7R,9R,13aS,14aR,16aS,Z)-2-((5-chloro-3-(2-methoxyethoxyl)isoquinolin-1-yl)oxy)-7,9-dimethyl-14a-(((1-methylcyclopropyl)sulfonyl)carbamoyl)-5,16-dioxo-1,2,3,5,6,7,8,9,10,11,13a,14,14a,15,16,16a-hexadecahydrocyclopropa[e]pyrrolo[1,2-a][1,4]diazacyclopentadecin-6-yl)carbamate]
EC50 [1]: < 5.46 nM | EC50 [2]: < 5.46 nM

COCCOc1cc2c(Cl)cccc2c(O[C@@H]2C[C@H]3C(=O)N[C@]4(C(=O)NS(=O)(=O)C5(C)CC5)C[C@H]4/C=C\CC[C@H](C)C[C@@H](C)[C@H](NC(=O)OC(C)(C)C)C(=O)N3C2)n1 [Compound 1117, tert-butyl ((2R,6S,7R,9S,13aS,14aR,16aS,Z)-2-((5-chloro-3-(2-methoxyethoxyl)isoquinolin-1-yl)oxy)-7,9-dimethyl-14a-(((1-methylcyclopropyl)sulfonyl)carbamoyl)-5,16-dioxo-1,2,3,5,6,7,8,9,10,11,13a,14,14a,15,16,16a-hexadecahydrocyclopropa[e]pyrrolo[1,2-a][1,4]diazacyclopentadecin-6-yl)carbamate]
EC50 [1]: < 5.46 nM | EC50 [2]: < 5.46 nM

COCCOc1cc2c(Cl)cccc2c(O[C@@H]2C[C@H]3C(=O)N[C@]4(C(=O)NS(=O)(=O)C5(C)CC5)C[C@H]4/C=C\CC[C@@H](C)C[C@@H](C)[C@H](NC(=O)OC(C)(C)C)C(=O)N3C2)n1 [Compound 1118, tert-butyl ((2R,6S,7R,9R,13aS,14aR,16aS,Z)-2-((5-chloro-3-(2-methoxyethoxyl)isoquinolin-1-yl)oxy)-7,9-dimethyl-14a-(((1-methylcyclopropyl)sulfonyl)carbamoyl)-5,16-dioxo-1,2,3,5,6,7,8,9,10,11,13a,14,14a,15,16,16a-hexadecahydrocyclopropa[e]pyrrolo[1,2-a][1,4]diazacyclopentadecin-6-yl)carbamate]
EC50 [1]: < 5.46 nM | EC50 [2]: < 5.46 nM

CC[C@@H]1C[C@@H](C)CC/C=C\[C@@H]2C[C@@]2(C(=O)NS(=O)(=O)C2(C)CC2)NC(=O)[C@@H]2C[C@@H](Oc3nc(OC)cc4cc(OC)ccc34)CN2C(=O)[C@H]1NC(=O)OC(C)(C)C(F)(F)F [Compound 1119, 1,1,1-trifluoro-2-methylpropan-2-yl((2R,6S,7R,9S,13aS,14aR,16aS,Z)-2-((3,6-dimethoxyisoquinolin-1-yl)oxy)-7-ethyl-9-methyl-14a-(((1-methylcyclopropyl)sulfonyl)carbamoyl)-5,16-dioxo-1,2,3,5,6,7,8,9,10,11,13a,14,14a,15,16,16a-hexadecahydrocyclopropa[e]pyrrolo[1,2-a][1,4]diazacyclopentadecin-6-yl)carbamate]
EC50 [1]: < 5.46 nM | EC50 [2]: < 5.46 nM

CC[C@@H]1C[C@H](C)CC/C=C\[C@@H]2C[C@@]2(C(=O)NS(=O)(=O)C2(C)CC2)NC(=O)[C@@H]2C[C@@H](Oc3nc(OC)cc4cc(OC)ccc34)CN2C(=O)[C@H]1NC(=O)OC(C)(C)C(F)(F)F [Compound 1120, 1,1,1-trifluoro-2-methylpropan-2-yl((2R,6S,7R,9R,13aS,14aR,16aS,Z)-2-((3,6-dimethoxyisoquinolin-1-yl)oxy)-7-ethyl-9-methyl-14a-(((1-methylcyclopropyl)sulfonyl)carbamoyl)-5,16-dioxo-1,2,3,5,6,7,8,9,10,11,13a,14,14a,15,16,16a-hexadecahydrocyclopropa[e]pyrrolo[1,2-a][1,4]diazacyclopentadecin-6-yl)carbamate]
EC50 [1]: < 5.46 nM | EC50 [2]: < 5.46 nM

CC[C@@H]1C[C@@H](C)CC/C=C\[C@@H]2C[C@@]2(C(=O)NS(=O)(=O)C2(C)CC2)NC(=O)[C@@H]2C[C@@H](Oc3nc(OC)cc4cc(OC)ccc34)CN2C(=O)[C@H]1NC(=O)OC1(C(F)(F)F)COC1 [Compound 1121, 3-(trifluoromethyl)oxetan-3-yl((2R,6S,7R,9S,13aS,14aR,16aS,Z)-2-((3,6-dimethoxyisoquinolin-1-yl)oxy)-7-ethyl-9-methyl-14a-(((1-methylcyclopropyl)sulfonyl)carbamoyl)-5,16-dioxo-1,2,3,5,6,7,8,9,10,11,13a,14,14a,15,16,16a-hexadecahydrocyclopropa[e]pyrrolo[1,2-a][1,4]diazacyclopentadecin-6-yl)carbamate]
EC50 [1]: < 5.46 nM | EC50 [2]: < 5.46 nM

CC[C@@H]1C[C@H](C)CC/C=C\[C@@H]2C[C@@]2(C(=O)NS(=O)(=O)C2(C)CC2)NC(=O)[C@@H]2C[C@@H](Oc3nc(OC)cc4cc(OC)ccc34)CN2C(=O)[C@H]1NC(=O)OC1(C(F)(F)F)COC1 [Compound 1122, 3-(trifluoromethyl)oxetan-3-yl ((2R,6S,7R,9R,13aS,14aR,16aS,Z)-2-((3,6-dimethoxyisoquinolin-1-yl)oxy)-7-ethyl-9-methyl-14a-(((1-methylcyclopropyl)sulfonyl)carbamoyl)-5,16-dioxo-1,2,3,5,6,7,8,9,10,11,13a,14,14a,15,16,16a-hexadecahydrocyclopropa[e]pyrrolo[1,2-a][1,4]diazacyclopentadecin-6-yl)carbamate]
EC50 [1]: < 5.46 nM | EC50 [2]: < 5.46 nM

CC[C@@H]1C[C@@H](C)CC/C=C\[C@@H]2C[C@@]2(C(=O)NS(=O)(=O)C2(C)CC2)NC(=O)[C@@H]2C[C@@H](Oc3nc(OC)cc4cc(OC)ccc34)CN2C(=O)[C@H]1NC(=O)OC(C)(C)C(C)(F)F [Compound 1123, 3,3-difluoro-2-methylbutan-2-yl((2R,6S,7R,9S,13aS,14aR,16aS,Z)-2-((3,6-dimethoxyisoquinolin-1-yl)oxy)-7-ethyl-9-methyl-14a-(((1-methylcyclopropyl)sulfonyl)carbamoyl)-5,16-dioxo-1,2,3,5,6,7,8,9,10,11,13a,14,14a,15,16,16a-hexadecahydrocyclopropa[e]pyrrolo[1,2-a][1,4]diazacyclopentadecin-6-yl)carbamate]
EC50 [1]: < 5.46 nM | EC50 [2]: < 5.46 nM

CC[C@@H]1C[C@H](C)CC/C=C\[C@@H]2C[C@@]2(C(=O)NS(=O)(=O)C2(C)CC2)NC(=O)[C@@H]2C[C@@H](Oc3nc(OC)cc4cc(OC)ccc34)CN2C(=O)[C@H]1NC(=O)OC(C)(C)C(C)(F)F [Compound 1124, 3,3-difluoro-2-methylbutan-2-yl((2R,6S,7R,9R,13aS,14aR,16aS,Z)-2-((3,6-dimethoxyisoquinolin-1-yl)oxy)-7-ethyl-9-methyl-14a-(((1-methylcyclopropyl)sulfonyl)carbamoyl)-5,16-dioxo-1,2,3,5,6,7,8,9,10,11,13a,14,14a,15,16,16a-hexadecahydrocyclopropa[e]pyrrolo[1,2-a][1,4]diazacyclopentadecin-6-yl)carbamate]
EC50 [1]: < 5.46 nM | EC50 [2]: < 5.46 nM

COc1ccc2c(O[C@@H]3C[C@H]4C(=O)N[C@]5(C(=O)NS(=O)(=O)C6(CF)CC6)C[C@H]5/C=C\CC[C@@H](C)C[C@@H](C)[C@H](NC(=O)OC(C)(C)C)C(=O)N4C3)nc(OC)cc2c1 [Compound 1125, tert-butyl ((2R,6S,7R,9R,13aS,14aR,16aS,Z)-2-((3,6-dimethoxyisoquinolin-1-yl)oxy)-14a-(((1-(fluoromethyl)cyclopropyl)sulfonyl)carbamoyl)-7,9-dimethyl-5,16-dioxo-1,2,3,5,6,7,8,9,10,11,13a,14,14a,15,16,16a-hexadecahydrocyclopropa[e]pyrrolo[1,2-a][1,4]diazacyclopentadecin-6-yl)carbamate]
EC50 [1]: < 5.46 nM | EC50 [2]: < 5.46 nM
